Test results published in patent US10407463B2, “Method for producing alpha-form crystal of reduced glutathione, and method for storing said crystal” (KYOWA HAKKO BIO CO., LTD., priority 2015, dated 2019).
Marks after values point to notes of the source that are not given here. One block for each molecule: values may come before it. Peptide text beside a SMILES is read from it.

Key:
[1] = not told
Description: The crystals precipitated during stirring are observed under a microscope, and it is judged whether the crystals are all α-form crystals or development of β-form crystal or transition to β-form crystal has occurred. Since the shape of α-form crystal, which is a large columnar crystal, is markedly different from that of β-form crystal, which is a small needle crystal, they can easily be distinguished by microscopic observation. […] The permeability can be expressed by permeability (T %) 430 nm=100×10^−A (A=Abs: 430 nm, 1 cm). When β-form crystal having low solubility is present, the permeability of the solution is lowered since the crystals left undissolved are detected as turbidity. Since the development of β-form crystal causes crystallization and a lower concentration of reduced glutathione in the solution in the slurry than that of a solution containing α-form crystal alone, the kind of the coexisting crystals can also be distinguished by measuring the concentration of reduced glutathione in the mother liquor from which the coexisting crystals have been removed. The concentration of reduced glutathione in the mother liquor is measured by removing the coexisting crystals by filtration and the like, diluting same with mobile phase to a given concentration, maintaining with stirring for a sufficient time, and measuring the concentration under the following HPLC conditions.
After 3 hr, the crystals (each 1 g) were dissolved in water (10 mL) at 25° C., the permeability at 430 nm was measured, and the turbidity was confirmed to determine the presence or absence of transition to β-form crystal.

[2] = Suppression of transition to β-form crystal by habit modifier in α-form crystal slurry (Example 1); type: physicochemical; conditions: 0.45 g added to 9 g α-form crystals in 30 mL water; 25° C., 24 hr; microscopic observation
Description: α-Form crystals of reduced glutathione (9 g) and water (30 mL) were mixed in a glass bottle. […] The glass bottle was shaken in a tray dryer set to 25° C. for 24 hr.

[3] = Concentration crystallization of reduced glutathione with 10 wt % habit modifier, production method (2) (Example 6); type: physicochemical; conditions: 10 wt % added; concentrate cooled to 25° C., stirred 24 hr; microscopic observation
Description: (§1) Reduced glutathione (50 g) and water (500 mL) were added to a 1 L beaker. […] The prepared solution (filtrate) was concentrated by an evaporator such that the concentration of reduced glutathione was not less than the saturation solubility of α-form crystal to perform concentration crystallization of reduced glutathione.

[4] = Concentration crystallization of reduced glutathione with habit modifier, production method (1) (Example 5); type: physicochemical; conditions: 2.5 g added to 50 g reduced glutathione; concentrate cooled to 25° C., stirred 24 hr; microscopic observation
Description: as §1

[5] = Amount of habit modifier needed to suppress β-form crystal development in aqueous reduced glutathione solution (Example 4); type: physicochemical; conditions: 10° C.
Text: The results of the elapsed time and changes in the concentration of reduced glutathione due to the presence or absence of a habit modifier are shown in Table 3.

[6] = at 10° C., in water
Text: The crystal of reduced glutathione includes two kinds of crystal polymorphs of α-form crystal and β-form crystal (non-patent document 1). […] Therefore, the β-form crystal having low solubility is associated with problems that it is difficult to process as a raw material and cannot be handled with ease.

SMILES: C[C@H](N)C(=O)N[C@@H](CS)C(=O)O [AlaCys, L-alanyl-L-cysteine] (H-Ala-Cys-OH)
permeability (%) [1]: 99% | transition of α-form crystal to β-form crystal [2]: suppression of the transition

SMILES: O=C(O)[C@H]1CCCN1 [D-Pro, D-proline]
transition of α-form crystal to β-form crystal [2]: suppression of the transition

SMILES: C[C@H](N)C(=O)O [L-Ala, L-alanine]
crystal form produced [3]: produced α-form crystal alone | crystal form produced [4]: produced α-form crystal alone | development of β-form crystal ([5]; 0.01 wt %-1 wt % added, 15 hr): suppressed development of β-form crystal | concentration (g/L) of reduced glutathione ([5]; amount added 0.01%, elapsed time 0 h): 94.2* g/L | concentration (g/L) of reduced glutathione ([5]; amount added 0.01%, elapsed time 15 h): 89.2* g/L | concentration (g/L) of reduced glutathione ([5]; amount added 0.1%, elapsed time 0 h): 94.2* g/L | concentration (g/L) of reduced glutathione ([5]; amount added 0.1%, elapsed time 15 h): 91.2* g/L | concentration (g/L) of reduced glutathione ([5]; amount added 1.0%, elapsed time 0 h): 94.2* g/L | concentration (g/L) of reduced glutathione ([5]; amount added 1.0%, elapsed time 15 h): 92.6* g/L | permeability (%) [1]: 100% | transition of α-form crystal to β-form crystal [2]: suppression of the transition

SMILES: N[C@@H](CS)C(=O)O [L-Cys, L-cysteine]
crystal form produced [3]: produced α-form crystal alone | crystal form produced [4]: produced α-form crystal alone | permeability (%) [1]: 100% | transition of α-form crystal to β-form crystal [2]: suppression of the transition

SMILES: Cl.N[C@@H](Cc1c[nH]cn1)C(=O)O [L-His, L-histidine hydrochloride, reference compound]
permeability (%) [1]: 95%

SMILES: N[C@@H](Cc1c[nH]c2ccccc12)C(=O)O [L-Trp, L-tryptophan]
permeability (%) [1]: 99% | transition of α-form crystal to β-form crystal [2]: suppression of the transition

Next, values leading:

permeability (%) [1]: 100% | transition of α-form crystal to β-form crystal [2]: suppression of the transition
SMILES: N[C@@H](Cc1ccccc1)C(=O)O [L-Phe, L-phenylalanine]

saturated solubility [6]: 89 mg/mL
SMILES: N[C@@H](CCC(=O)N[C@@H](CS)C(=O)NCC(=O)O)C(=O)O [α-form crystal, reduced glutathione]

saturated solubility [6]: 30 mg/mL
SMILES: N[C@@H](CCC(=O)N[C@@H](CS)C(=O)NCC(=O)O)C(=O)O [β-form crystal, reduced glutathione]
